Data from patent publication US8975397B2, “Solid forms” (Hoffmann-La Roche Inc., priority 2011, dated 2015).
In brackets after ≈: the same amount, converted by molar mass. Entries after “also recorded” stand apart in the source; their conditions may differ. Where two headings read alike, the source gives them in different places. Values belong to the molecule of their own block, whether it stands above or below them.

How the values were obtained:
[1] = Thermodynamic stability of polymorphs; type: physicochemical
Excerpt: The term “monotropy” denotes the relationship between two or more crystal forms of the same substance in which the rank order of thermodynamic stabilities of the polymorphs is retained at all temperatures below the melting point.

[2] = Temperature Controlled XRPD / heating: solid form change; type: physicochemical; conditions: for solid form changes at elevated temperature: Temperature Controlled XRPD
Experimental: Temperature Controlled XRPD analyses of Form B show a phase transition to Form A at elevated temperature. In the temperature range 105-135° C. only Form A is present. In the temperature range of 65-95° C. an intermediate state is observed that is characterized by significant changes in peak positions.

[3] = Solid form stability towards humidity and water (storage, Humidity Controlled XRPD); conditions: for phase change upon storage at 100% rH: ambient temperature (Form C: e.g. 30 days); for relative humidity at which Form B dehydrates into Form E: storage / Humidity Controlled XRPD, monohydrate
Experimental: Humidity Controlled XRPD analyses were performed in reflection geometry with a Siemens D5000 Diffractometer (Cu radiation source, NiK beta filter, Scintillation detector, angular range 3° to 42° 2Theta, approximately 180 minutes total measurement time per humidity level). The diffractometer is equipped with an MR1 (Materials Research Instruments) humidity chamber. The humidity within the chamber is adjusted with an ANSYCO humidity controller (SYCOS H-HOT).
50 mg of Form B was subjected to dehydration/hydration cycles.

[4] = Hygroscopicity (European Pharmacopoeia classification); type: physicochemical; conditions: for hygroscopicity: mass increase 0% rH to 90% rH
Excerpt: The term “hygroscopicity” describes the ability of a solid material to adsorb moisture. The hygroscopicity of a given API is characterized [European Pharmacopoeia—6th Edition (2008), Chapter 5.11) by the increase in mass when the relative humidity is raised from 0% rH to 90% rH: • non-hygroscopic: weight increase Δm<0.2%; • slightly hygroscopic: weight increase 0.2%≦Δm<2.0%; • hygroscopic: weight increase 2.0%≦Δm<15.0%; • very hygroscopic: weight increase Δm≧15.0%; • deliquescent: sufficient water is adsorbed to form a liquid.

[5] = In vitro dissolution in miniaturized system (SGF, FeSSIF); type: physicochemical; conditions: comparison with Form B
Experimental: FIG. 21 illustrates the mean in vitro dissolution profiles in SGF. Mean in vitro dissolution profiles of micronized powders of Form A (∘), Form B (▾), Form C (▪) and γ-CD inclusion complex (Δ) in SGF at room temperature. Measurements were performed in triplicate (n=3).
FIG. 22 illustrates the mean in vitro dissolution profiles in FeSSIF. Mean in vitro dissolution profiles of micronized powders of Form A (∘), Form B (▾), Form C (▪) and γ-CD inclusion complex (Δ) in FeSSIF at room temperature. Measurements were performed in triplicate (n=3).
The in vitro dissolution studies performed in this work were conducted in a miniaturized system with 100 mL dissolution medium per experiment. In comparison to the 1000 mL vessels of the conventional USP apparatus the experimental set-up that was used here was scaled-down and simplified (magnetic stirring instead of paddles, room temperature instead of 37° C.). […] Simulated gastric fluid (SGF) was prepared with 2 g/L NaCl and 1 g/L Triton® X-100 in 0.1 N HCl. The resulting measured pH of SGF was 1.2.
Oral absorption of a drug compound from a solid dosage form is dependent on dissolution rate and solubility. In the present work the in vitro dissolution of the γ-CD inclusion complex was compared to micronized powders of polymorph Form A, Form B and Form C. […]

[6] = Biopharmaceutical classification system (BCS); type: physicochemical
Excerpt: The compound of formula (I), its manufacture, its pharmacological activity as inverse agonists of the GABA A α5 receptor, and its use for the treatment, prevention and/or delay of progression of various central nervous system (CNS) conditions have been described in WO 2009/071476. […] Res. (1995) 12:413-420].

[7] = Excerpt: FIG. 20 illustrates the phase solubility diagram of (1,1-dioxo-1λ^6-thiomorpholin-4-yl)-{6-[3-(4-fluoro-phenyl)-5-methyl-isoxazol-4-ylmethoxy]-pyridin-3-yl}-methanone and γ-CD. The API solubility is shown in [μg/mL].
Phase solubility diagrams are used to characterize complex formation between two compounds and represent the solubility of the API as a function of the cyclodextrin concentration. […] Anal. Chem. Instrum. (1965) 4:117-212] and Brewster [M E. Brewster et al. Adv. Drug Delivery Rev. (2007) 59:645-666] (FIG. 20).
Anal. Chem. Instrum. (1965) 4:117-212]:
[formula] […] The binding constant (K) is a measure of the affinity of the API to enter the relatively apolar cavity of the CD.

[8] = Temperature Controlled XRPD of Form B

Compound: Cc1onc(-c2ccc(F)cc2)c1COc1ccc(C(=O)N2CCS(=O)(=O)CC2)cn1 [Form A, (1,1-dioxo-1λ^6-thiomorpholin-4-yl)-{6-[3-(4-fluoro-phenyl)-5-methyl-isoxazol-4-ylmethoxy]-pyridin-3-yl}-methanone]
thermodynamic stability of the polymorph [1]: metastable
thermodynamic stability of the polymorph ([1]; listed as form A): only metastable
solid form changes at elevated temperature [2]: do not show solid form changes

Compound: Cc1onc(-c2ccc(F)cc2)c1COc1ccc(C(=O)N2CCS(=O)(=O)CC2)cn1 [amorphous Form, (1,1-dioxo-1λ^6-thiomorpholin-4-yl)-{6-[3-(4-fluoro-phenyl)-5-methyl-isoxazol-4-ylmethoxy]-pyridin-3-yl}-methanone]
phase change upon storage at 100% rH [3]: no phase transformation has been observed
hygroscopicity [4]: slightly hygroscopic (weight increase 0.2%≦Δm<2.0%)

Compound: Cc1onc(-c2ccc(F)cc2)c1COc1ccc(C(=O)N2CCS(=O)(=O)CC2)cn1 [Form E, (1,1-dioxo-1λ^6-thiomorpholin-4-yl)-{6-[3-(4-fluoro-phenyl)-5-methyl-isoxazol-4-ylmethoxy]-pyridin-3-yl}-methanone]
relative humidity at which Form E reconverts (rehydrates) into Form B ([3]; exposure to humidity): > 5 % rH

Compound: Cc1onc(-c2ccc(F)cc2)c1COc1ccc(C(=O)N2CCS(=O)(=O)CC2)cn1 [Form C, (1,1-dioxo-1λ^6-thiomorpholin-4-yl)-{6-[3-(4-fluoro-phenyl)-5-methyl-isoxazol-4-ylmethoxy]-pyridin-3-yl}-methanone]
phase change upon storage at 100% rH [3]: does not induce this phase change
phase change in the presence of water ([3]; suspended state): transforms into Form B
hygroscopicity compared to Form A ([4]; comparison): less hygroscopic than Form A
solubility in simulated gastric fluid (SGF) [5]: considerably improved as compared to Form B
thermodynamic stability of the polymorph [1]: more stable than Form A; also recorded: most stable polymorph overall
solid form changes at elevated temperature [2]: do not show solid form changes

Compound: Cc1onc(-c2ccc(F)cc2)c1COc1ccc(C(=O)N2CCS(=O)(=O)CC2)cn1 [Form B, (1,1-dioxo-1λ^6-thiomorpholin-4-yl)-{6-[3-(4-fluoro-phenyl)-5-methyl-isoxazol-4-ylmethoxy]-pyridin-3-yl}-methanone monohydrate]
stability in the presence of humidity ([3]; e.g. at ambient conditions, compared to Form A): substantially increased as compared to Form A
relative humidity at which Form B dehydrates into Form E ([3]; listed as form B): 0 % rH
relative humidity at which Form B dehydrates into Form E [3]: < 5 % rH
hygroscopicity ([4]; monohydrate): hygroscopic (weight increase 2.0%≦Δm<15.0%)
temperature range in which an intermediate state is observed [2, 8]: 65-95 °C
temperature range in which only Form A is present [2, 8]: 105-135 °C
temperature of transformation into Form A upon heating ([2]; heating): > 100 °C

Continued, values first:

aqueous solubility ([6]; BCS): low
permeability ([6]; BCS): high
BCS class ([6]; biopharmaceutical classification system): BCS 2
phase solubility diagram type [7]: BS-type behavior
Compound: Cc1onc(-c2ccc(F)cc2)c1COc1ccc(C(=O)N2CCS(=O)(=O)CC2)cn1 [compound of formula (I), (1,1-Dioxo-1λ^6-thiomorpholin-4-yl)-{6-[3-(4-fluoro-phenyl)-5-methyl-isoxazol-4-ylmethoxy]-pyridin-3-yl}-methanone]

solubility limit in aqueous solution [7]: 150 mM (≈ 195 mg/mL)
Compound: OC[C@H]1O[C@@H]2O[C@H]3[C@H](O)[C@@H](O)[C@@H](O[C@H]4[C@H](O)[C@@H](O)[C@@H](O[C@H]5[C@H](O)[C@@H](O)[C@@H](O[C@H]6[C@H](O)[C@@H](O)[C@@H](O[C@H]7[C@H](O)[C@@H](O)[C@@H](O[C@H]8[C@H](O)[C@@H](O)[C@@H](O[C@H]9[C@H](O)[C@@H](O)[C@@H](O[C@H]1[C@H](O)[C@H]2O)O[C@@H]9CO)O[C@@H]8CO)O[C@@H]7CO)O[C@@H]6CO)O[C@@H]5CO)O[C@@H]4CO)O[C@@H]3CO [γ-cyclodextrin]
